Assay results taken from patent publication US20040176431A1, “Antiproliferative 2-(sulfo-phenyl)-aminothiazole derivatives and pharmaceutical compositions, and methods for their use” (Pfizer, Inc., priority 2003, published 2004).

Molecular target: T1, CDK4/cyclin D3 (Homo sapiens, UniProt P11802)
T1 construct: made in house; host or cells: insect cells (baculovirus co-infection)
Test: Inhibition of CDK4/Cyclin D retinoblastoma kinase activity;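 on % Inhib CDK4/D @ 1 μM: relative to DMSO control wells without compound minus no-enzyme background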
Assay type: biochemical
Conditions: for inhibition at 0.1 µM: test compound at 0.1 μM, read-out: % Inhib CDK4/D @ 0.1 μM; for inhibition at 1 µM: test compound at 1 μM (head line shifted: 'mM' printed beside 'Structure'), read-out: % Inhib CDK4/D @ 1 μM; for inhibition at 0.03 µM: test compound at 0.03 (unit cell empty, head line shifted; μM), read-out: % Inhib CDK4/D @ 0.03
How it was run: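 Human CDK4 with truncated cyclin D3 (1-264) from baculovirus-infected insect cells, 5 nM, phosphorylating His-tagged Rb fragment (386-928) with 25 μM [32P/33P]ATP in pH 7.4 HEPES/MgCl2, 2% DMSO, 30° C., 20 min (60 min for tight binders). Filter capture, phosphorimager; apparent Ki from competitive or tight-binding competitive fits.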

T1 sequence (P11802 whole entry): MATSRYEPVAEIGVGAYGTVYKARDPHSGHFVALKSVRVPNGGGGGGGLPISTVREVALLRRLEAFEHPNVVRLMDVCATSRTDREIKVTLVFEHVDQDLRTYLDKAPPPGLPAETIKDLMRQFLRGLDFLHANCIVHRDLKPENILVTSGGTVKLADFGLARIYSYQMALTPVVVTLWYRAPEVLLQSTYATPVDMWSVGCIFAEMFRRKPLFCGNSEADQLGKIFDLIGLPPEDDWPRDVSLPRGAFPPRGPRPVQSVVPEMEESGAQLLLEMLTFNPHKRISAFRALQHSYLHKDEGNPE
T1 sequence (P30281 1-264 partner limits assumed): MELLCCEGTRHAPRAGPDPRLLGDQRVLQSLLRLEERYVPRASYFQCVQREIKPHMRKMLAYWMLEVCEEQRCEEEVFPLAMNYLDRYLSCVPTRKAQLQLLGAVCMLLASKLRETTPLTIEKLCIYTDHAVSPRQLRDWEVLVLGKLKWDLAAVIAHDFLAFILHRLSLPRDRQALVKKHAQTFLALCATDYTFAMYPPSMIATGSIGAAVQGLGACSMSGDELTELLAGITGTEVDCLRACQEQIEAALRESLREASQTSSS

| Structure (SMILES) | inhibition at 0.1 µM | inhibition at 1 µM | inhibition at 0.03 µM |
| --- | --- | --- | --- |
| COC(=O)/C=C/C[S+]([O-])c1cccc(Nc2nc(N)c(C(=O)c3c(Cl)cccc3Cl)s2)c1 (stereo not drawn) [DD(124)] | 34% | 38.8% | 2.1% |
| Nc1nc(Nc2cccc([S+]([O-])CCCO)c2)sc1C(=O)c1c(Cl)cccc1Cl (stereo not drawn) [DD(125)] | 55% | 61.5% | 15% |
| C=CCC[S+]([O-])c1cccc(Nc2nc(N)c(C(=O)c3c(Cl)cccc3Cl)s2)c1 (stereo not drawn) [DD(126)] | 28% | 43.1% | 7.5% |
| Nc1nc(Nc2cccc([S+]([O-])CCN3CCCC3)c2)sc1C(=O)c1c(Cl)cccc1Cl (stereo not drawn) [DD(127)] | 34% | 49.6% | -4.3% |
| Nc1nc(Nc2cccc([S+]([O-])Cc3ncon3)c2)sc1C(=O)c1c(Cl)cccc1Cl (stereo not drawn) [DD(128)] | 54% | 49.9% | 12% |
| Nc1nc(Nc2cccc([S+]([O-])CC3CNC(=O)O3)c2)sc1C(=O)c1c(Cl)cccc1Cl (stereo not drawn) [DD(129)] | 33% | 33.3% | 19% |
| Nc1nc(Nc2cccc([S+]([O-])CCN3CCCCC3)c2)sc1C(=O)c1c(Cl)cccc1Cl (stereo not drawn) [DD(131)] | 32% | 57% | 13% |
| CC(C)CC[S+]([O-])c1cccc(Nc2nc(N)c(C(=O)c3c(Cl)cccc3Cl)s2)c1 (stereo not drawn) [DD(133)] | 28% | 24.3% | 14% |
| Nc1nc(Nc2cccc([S+]([O-])CC(=O)Nc3ccccc3)c2)sc1C(=O)c1c(Cl)cccc1Cl (stereo not drawn) [DD(135)] | 42% | 51.9% | 16% |
| COc1cccc(C[S+]([O-])c2cccc(Nc3nc(N)c(C(=O)c4c(Cl)cccc4Cl)s3)c2)c1 (stereo not drawn) [DD(137)] | 22% | 36.7% | -1.7% |
| CN1CCCC1CC[S+]([O-])c1cccc(Nc2nc(N)c(C(=O)c3c(Cl)cccc3Cl)s2)c1 (stereo not drawn) [DD(139)] | 53% | 77.6% | 17% |
| NC(=O)C[S+]([O-])c1cccc(Nc2nc(N)c(C(=O)c3c(Cl)cccc3Cl)s2)c1 (stereo not drawn) [DD(141)] | 71% | 64.5% | 36% |
| CC(C)=CC[S+]([O-])c1cccc(Nc2nc(N)c(C(=O)c3c(Cl)cccc3Cl)s2)c1 (stereo not drawn) [DD(144)] | 12% | 27.7% | -66% |
| CCC[S+]([O-])c1cccc(Nc2nc(N)c(C(=O)c3c(Cl)cccc3Cl)s2)c1 (stereo not drawn) [DD(145)] | 32% | 42.3% | 4.2% |
| CN1CCCC(C[S+]([O-])c2cccc(Nc3nc(N)c(C(=O)c4c(Cl)cccc4Cl)s3)c2)C1 (stereo not drawn) [DD(147)] | 38% | 39.6% | 19% |
| NC(=O)CC[S+]([O-])c1cccc(Nc2nc(N)c(C(=O)c3c(Cl)cccc3Cl)s2)c1 (stereo not drawn) [DD(148)] | 53% | 65.5% | 35% |
| CC(C)CCOC(=O)C[S+]([O-])c1cccc(Nc2nc(N)c(C(=O)c3c(Cl)cccc3Cl)s2)c1 (stereo not drawn) [DD(151)] | 9.2% | 34.3% | 16% |
| CN(C)CC[S+]([O-])c1cccc(Nc2nc(N)c(C(=O)c3c(Cl)cccc3Cl)s2)c1 (stereo not drawn) [DD(152)] | 28% | 57.3% | 21% |
| Nc1nc(Nc2cccc([S+]([O-])CC(O)CO)c2)sc1C(=O)c1c(Cl)cccc1Cl (stereo not drawn) [DD(154)] | 60% | 73.5% | 31% |
| Nc1nc(Nc2cccc([S+]([O-])Cc3ccncc3)c2)sc1C(=O)c1c(Cl)cccc1Cl (stereo not drawn) [DD(155)] | 35% | 59.6% | 25% |
| CC(=O)OCC[S+]([O-])c1cccc(Nc2nc(N)c(C(=O)c3c(Cl)cccc3Cl)s2)c1 (stereo not drawn) [DD(157)] | 42% | 59.7% | 21% |
| Nc1nc(Nc2cccc([S+]([O-])CCN3CCOCC3)c2)sc1C(=O)c1c(Cl)cccc1Cl (stereo not drawn) [DD(159)] | 25% | 44% | 36% |

The remaining lines, values ahead:

| inhibition at 0.1 µM | inhibition at 1 µM | inhibition at 0.03 µM | Structure (SMILES) |
| --- | --- | --- | --- |
| 41% | 56% | 12% | CN(C)CCC[S+]([O-])c1cccc(Nc2nc(N)c(C(=O)c3c(Cl)cccc3Cl)s2)c1 (stereo not drawn) [DD(130)] |
| 64% | 62% | 44% | Nc1nc(Nc2cccc([S+]([O-])CC3CO3)c2)sc1C(=O)c1c(Cl)cccc1Cl (stereo not drawn) [DD(132)] |
| 48% | 49.9% | 8.4% | COCC[S+]([O-])c1cccc(Nc2nc(N)c(C(=O)c3c(Cl)cccc3Cl)s2)c1 (stereo not drawn) [DD(134)] |
| 27% | 44.9% | 14% | Nc1nc(Nc2cccc([S+]([O-])CC3CC3)c2)sc1C(=O)c1c(Cl)cccc1Cl (stereo not drawn) [DD(136)] |
| 34% | 63.8% | 2.9% | Nc1nc(Nc2cccc([S+]([O-])CC3CCCO3)c2)sc1C(=O)c1c(Cl)cccc1Cl (stereo not drawn) [DD(138)] |
| 41% | 68% | 25% | CC1(C[S+]([O-])c2cccc(Nc3nc(N)c(C(=O)c4c(Cl)cccc4Cl)s3)c2)CO1 (stereo not drawn) [DD(140)] |
| 36% | 39.3% | -2.6% | CCOC(=O)CC[S+]([O-])c1cccc(Nc2nc(N)c(C(=O)c3c(Cl)cccc3Cl)s2)c1 (stereo not drawn) [DD(142)] |
| 24% | 36.7% | 15% | CC(C)OC(=O)C[S+]([O-])c1cccc(Nc2nc(N)c(C(=O)c3c(Cl)cccc3Cl)s2)c1 (stereo not drawn) [DD(143)] |
| 53% | 47.6% | 15% | COC(=O)C[S+]([O-])c1cccc(Nc2nc(N)c(C(=O)c3c(Cl)cccc3Cl)s2)c1 (stereo not drawn) [DD(146)] |
| 55% | 57.7% | 33% | Nc1nc(Nc2cccc([S+]([O-])CCO)c2)sc1C(=O)c1c(Cl)cccc1Cl (stereo not drawn) [DD(149)] |
| 21% | 10.4% | 5.6% | CC(C)CCC[S+]([O-])c1cccc(Nc2nc(N)c(C(=O)c3c(Cl)cccc3Cl)s2)c1 (stereo not drawn) [DD(150)] |
| 44% | 51.8% | 15% | CCOCC[S+]([O-])c1cccc(Nc2nc(N)c(C(=O)c3c(Cl)cccc3Cl)s2)c1 (stereo not drawn) [DD(153)] |
| 25% | 15.1% | 17% | CCC(CC)C[S+]([O-])c1cccc(Nc2nc(N)c(C(=O)c3c(Cl)cccc3Cl)s2)c1 (stereo not drawn) [DD(156)] |
| 27% | 35% | 22% | CC(C)OC(=O)CC[S+]([O-])c1cccc(Nc2nc(N)c(C(=O)c3c(Cl)cccc3Cl)s2)c1 (stereo not drawn) [DD(158)] |
| 19% | 49% | 8.1% | CC(C)(CO)C[S+]([O-])c1cccc(Nc2nc(N)c(C(=O)c3c(Cl)cccc3Cl)s2)c1 (stereo not drawn) [DD(160)] |
